These results are taken from patent publication US4895863A, “Novel imidazo[2,1-B]benzothiazoles” (Roussel Uclaf, priority 1987, dated 1990).

The target of the experiment is benzodiazepine receptors. The experiment in a line: Affinity for benzodiazepine receptors: inhibition of specific binding of 3H-labelled flunitrazepam in rat rear brain membranes. Also on record: species or system rats. The settings on record: inhibition of 50% of specific binding of 0.6×10^-9 mol 3H-flunitrazepam; membranes from rear portion of rat brain. As for the experimental part:
The affinity of the active ingredients for benzodiazepine receptors was measured using a radioactively labelled (^3 H) compound flunitrazepam in a modified version of the method of Squires et al [Nature, (1977), Vol. 266, p. 732]. The values given in Table 2 below are the concentration (mol×10^-9) of the compound under test which inhibited 50% of the specific binding of 0.6×10^-9 mol of ^3 H-labelled flunitrazepam in preparations of membrances from the rear portion of the brain in rats (IC50 values).
The term IC50 denotes the midpoint of a concentration-inhibition curve. Read a low IC50 as greater potency. In the case of `CC(C)Oc1ccc2c(c1)sc1nc(C(=O)C3CC3)cn12` [Example 7, (7-isopropoxy-imidazo[2,1-b]benzothiazol-2-yl) cyclopropyl-methanone], the IC50 was 6.3 nM. Then `Cc1cc2sc3nc(C(=O)C4CC4)cn3c2cc1C` [Example 8], with 60 nM. The same measure for `O=C(c1cn2c(n1)sc1cc3c(cc12)OCO3)C1CC1` [Example 5]: 158 nM.

`O=C(c1cn2c(n1)sc1ccccc12)C1CC1` [Example 2] displayed an IC50 of 20 nM. Then `COc1ccc2c(c1)sc1nc(C(=O)C3CC3)cn12` [Example 1, (7-Methoxy-imidazo[2,1-b]benzothiazol-2-yl)-cyclopropylmethanone], with 2.5 nM; and `O=C(c1cn2c(n1)sc1cc(OCc3ccccc3)ccc12)C1CC1` [Example 4, (7-benzyloxy-imidazo[2,1-b]-benzothiazol-2-yl) cyclopropyl-methanone], with 3.2 nM; and `O=C(c1cn2c3c(sc2n1)CCCC3)C1CC1` [Example 6, (5,6,7,8-tetrahydro-imidazo[2,1-b]benzothiazol-2-yl) cyclopropyl-methanone], with 79 nM.
